Holding throughout (type): cell-based
In experiment [1] the test system is phospho-p90 RSK (RSK1 Thr359/Ser363) in A375 (Braf V600E) cells. Description: Phospho-p90 RSK ELISA using A375 (Braf V600E) cells. The following applies: Homo sapiens, A-375, 2 hours compound treatment, read-out: Cellular Phospho-p90RSK IC50. Background: An ELISA detects its analyte on a solid surface through an enzyme-linked reagent.
The test system of the next experiment is H358 (Kras, G12C) cells. In words: Tumor cell line proliferation assay (CellTiter Glo), H358. The following applies: Homo sapiens, NCI-H358, 96 hours. Background: In ATP-based viability assays light output follows the ATP content of the culture.
In the next experiment the test system is A375 cells. In words: Tumor cell line proliferation assay (CellTiter Glo), A375. Particulars: Homo sapiens, A-375, 96 h, read-out: A375 (V599E) Cell Proliferation IC50.

On to `COc1ncc(-c2n[nH]c3cc4c(cc23)CN([C@@H]2CCCN(Cc3c(F)cccc3F)C2)C(=O)N4)cn1` [Example 102], for which the IC50 in experiment [1] was ≤ 250 nM; in the experiment on H358 (Kras, G12C) cells, ≤ 250 nM; in the experiment with A375 cells, ≤ 250 nM.
For `COc1ncc(-c2n[nH]c3cc4c(cc23)CN([C@@H]2CCCN(Cc3c(F)cccc3OC)C2)C(=O)N4)cn1` [Example 103], the IC50 in experiment [1] is ≤ 250 nM; in the experiment on H358 (Kras, G12C) cells it was ≤ 250 nM; in the experiment with A375 cells, ≤ 250 nM.
Take `O=C1Nc2cc3[nH]nc(-c4ccnnc4)c3cc2CN1[C@@H]1CCCN(Cc2ccccc2)C1` [Example 120]: the IC50 is ≤ 250 nM in experiment [1]; 250 to 1000 nM in the experiment on H358 (Kras, G12C) cells; 250 to 1000 nM in the experiment with A375 cells.
Take `O=C1Nc2cc3[nH]nc(-c4cncnc4)c3cc2CN1Cc1cccc(Cl)c1` [Example 123]: the IC50 in experiment [1] was ≤ 250 nM; in the experiment with H358 (Kras, G12C) cells, 250 to 1000 nM; with A375 cells, 250 to 1000 nM.
As for `Cc1cc(-c2n[nH]c3cc4c(cc23)CN([C@@H]2CCCN(Cc3ccc(F)cn3)C2)C(=O)N4)ccn1` [Example 132], the IC50 in experiment [1] was ≤ 250 nM; in the experiment with H358 (Kras, G12C) cells, 250 to 1000 nM; with A375 cells it was 250 to 1000 nM.
Regarding `Cc1cc(-c2n[nH]c3cc4c(cc23)CN([C@@H]2CCCN(Cc3ccc(F)c(Cl)c3)C2)C(=O)N4)ccn1` [Example 134], the IC50 in experiment [1] is ≤ 250 nM; in the experiment with H358 (Kras, G12C) cells it was 250 to 1000 nM; in the experiment on A375 cells it was ≤ 250 nM.
With `Cc1cc(-c2n[nH]c3cc4c(cc23)CN([C@@H]2CCCN(CCC(C)(C)C)C2)C(=O)N4)ccn1` [Example 136], the IC50 in experiment [1] is 250 to 1000 nM; in the experiment with H358 (Kras, G12C) cells, > 1000 nM; in the experiment with A375 cells, 250 to 1000 nM.
As to `Cc1cc(-c2n[nH]c3cc4c(cc23)CN([C@@H]2CCCN(CC3CCCC3)C2)C(=O)N4)ccn1` [Example 138], the IC50 in experiment [1] was 250 to 1000 nM; in the experiment with H358 (Kras, G12C) cells it was > 1000 nM; in the experiment on A375 cells it was 250 to 1000 nM.
On to `Cc1cc(-c2n[nH]c3cc4c(cc23)CN([C@@H]2CCCN(Cc3cc(C)no3)C2)C(=O)N4)ccn1` [Example 139], for which the IC50 lay in the range of 250 to 1000 nM in experiment [1]; 250 to 1000 nM with H358 (Kras, G12C) cells; 250 to 1000 nM in the experiment with A375 cells.
For the molecule `Cc1cc(-c2n[nH]c3cc4c(cc23)CN([C@@H]2CCCN(Cc3csc(C)n3)C2)C(=O)N4)ccn1` [Example 140], the IC50 in experiment [1] was ≤ 250 nM; in the experiment with H358 (Kras, G12C) cells, 250 to 1000 nM; in the experiment on A375 cells, 250 to 1000 nM.
Regarding `Cc1cc(-c2n[nH]c3cc4c(cc23)CN([C@@H]2CCCN(CC3CCCCC3)C2)C(=O)N4)ccn1` [Example 141], the IC50 in experiment [1] was ≤ 250 nM; in the experiment on H358 (Kras, G12C) cells, 250 to 1000 nM; with A375 cells, 250 to 1000 nM.
As to `Cc1cc(-c2n[nH]c3cc4c(cc23)CN([C@@H]2CCCN(Cc3c(F)cccc3F)C2)C(=O)N4)ccn1` [Example 143], the IC50 in experiment [1] is ≤ 250 nM; in the experiment with H358 (Kras, G12C) cells it was ≤ 250 nM; in the experiment on A375 cells, ≤ 250 nM.
With `COc1cccc(F)c1CN1CCC[C@@H](N2Cc3cc4c(-c5ccnc(C)c5)n[nH]c4cc3NC2=O)C1` [Example 144], the IC50 is ≤ 250 nM in experiment [1]; ≤ 250 nM in the experiment on H358 (Kras, G12C) cells; ≤ 250 nM in the experiment on A375 cells.
With `Cc1cc(-c2n[nH]c3cc4c(cc23)CN([C@@H]2CCN(Cc3ccccc3)C2)C(=O)N4)ccn1` [Example 146], the IC50 in experiment [1] is ≤ 250 nM; in the experiment with H358 (Kras, G12C) cells, ≤ 250 nM; with A375 cells, ≤ 250 nM.
Regarding `Cc1cc(-c2n[nH]c3cc4c(cc23)CN([C@@H]2CCN(Cc3c(F)cccc3F)C2)C(=O)N4)ccn1` [Example 147], the IC50 in experiment [1] was ≤ 250 nM; in the experiment with H358 (Kras, G12C) cells, ≤ 250 nM; with A375 cells it was 250 to 1000 nM.
Take `Cc1cc(-c2n[nH]c3cc4c(cc23)CN([C@@H]2CCCN(Cc3cccnc3C(F)(F)F)C2)C(=O)N4)ccn1` [Example 161]: the IC50 is ≤ 250 nM in experiment [1]; 250 to 1000 nM in the experiment with H358 (Kras, G12C) cells; 250 to 1000 nM with A375 cells.
On to `Cc1cc(-c2n[nH]c3cc4c(cc23)CN([C@@H]2CCCN(Cc3cc(F)cc(F)c3)C2)C(=O)N4)ccn1` [Example 163], for which the IC50 in experiment [1] was ≤ 250 nM; with H358 (Kras, G12C) cells, 250 to 1000 nM; in the experiment on A375 cells, 250 to 1000 nM.
